Assays:
full length human TREX1 = biological target: T1, full length human TREX1 (Homo sapiens, UniProt Q9NSU2); test: hTREX1 Biochemical Assay (fluorescence, dsDNA substrate degradation); details: biochemical, read-out: hTREX1 IC50
T1 construct: N-terminally His-Tev tagged full length human TREX1; made in house; host or cells: E. coli
T1 sequence (Q9NSU2 1-314): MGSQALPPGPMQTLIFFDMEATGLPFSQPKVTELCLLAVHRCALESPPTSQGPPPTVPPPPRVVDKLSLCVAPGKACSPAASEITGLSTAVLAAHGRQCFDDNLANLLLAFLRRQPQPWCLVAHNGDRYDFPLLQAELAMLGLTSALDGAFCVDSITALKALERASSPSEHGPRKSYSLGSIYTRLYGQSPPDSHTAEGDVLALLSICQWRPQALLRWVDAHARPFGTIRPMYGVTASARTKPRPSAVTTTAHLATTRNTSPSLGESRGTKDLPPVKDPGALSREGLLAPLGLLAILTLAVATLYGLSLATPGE
Summary of the method: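 Fluorescence rises as enzyme degrades a quenched TEX615-labelled dsDNA substrate (60 nM) in 50 mM Tris, 150 mM NaCl, 5 mM MgCl2, pH 7.4. Full-length His-Tev-tagged human TREX1, 4 pM, sits with compound 4 hours at 25° C before substrate; reaction 18 hours, stopped with EDTA.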

full length mouse TREX1 = biological target: T2, full length mouse TREX1 (Mus musculus, UniProt Q91XB0); test: mTREX1 Biochemical Assay (fluorescence, dsDNA substrate degradation); details: biochemical, read-out: mTREX1 IC50
T2 construct: N-terminally His-Tev tagged full length mouse TREX1; made in house; host or cells: E. coli
T2 sequence (Q91XB0 1-314): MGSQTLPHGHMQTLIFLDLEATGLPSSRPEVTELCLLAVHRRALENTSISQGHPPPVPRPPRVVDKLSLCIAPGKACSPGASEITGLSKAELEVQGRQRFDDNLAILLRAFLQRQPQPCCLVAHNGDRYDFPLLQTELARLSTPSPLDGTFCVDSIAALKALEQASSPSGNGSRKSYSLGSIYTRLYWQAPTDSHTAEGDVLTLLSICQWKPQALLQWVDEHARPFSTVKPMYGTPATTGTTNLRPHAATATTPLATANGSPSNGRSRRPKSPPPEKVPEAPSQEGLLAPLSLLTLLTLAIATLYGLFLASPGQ
Summary of the method: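 Reaction run 18 h at 25° C. with 60 nM TEX615/quencher-labelled dsDNA and 6 pM mouse TREX1 in Tris buffer (pH 7.4, 5 mM MgCl2, 1.0% DMSO), enzyme having sat 4 h with compound across 10 concentrations. EDTA quench; substrate degradation measured as fluorescence increase.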

Row | Structure (SMILES) | IC50 (full length human TREX1) | IC50 (full length mouse TREX1)
1 | CC(c1nc(C(=O)Nc2cnoc2)c(O)c(=O)n1C)C(c1cnn(C)c1)c1cc(F)ccc1Cl (single isomer, unassigned) [Example 61 D2E1] | > 10 nM | > 10 nM
2 | CC(c1nc(C(=O)Nc2cnoc2)c(O)c(=O)n1C)C(c1cnn(C)c1)c1cc(F)ccc1Cl (single isomer, unassigned) [Example 61 D2E2] | > 10 nM | > 10 nM
3 | Cc1nn(C)cc1C(c1cc(F)ccc1Cl)C(C)c1nc(C(=O)Nc2cnoc2)c(O)c(=O)n1C (single isomer, unassigned) [Example 62 D1E1] | > 10 nM | > 10 nM
4 | Cc1nn(C)cc1C(c1cc(F)ccc1Cl)C(C)c1nc(C(=O)Nc2cnoc2)c(O)c(=O)n1C (single isomer, unassigned) [Example 62 D1E2] | > 10 nM | > 10 nM
5 | Cc1nn(C)cc1C(c1cc(F)ccc1Cl)C(C)c1nc(C(=O)Nc2cnoc2)c(O)c(=O)n1C (single isomer, unassigned) [Example 62 D2E1] | > 10 nM | > 10 nM
6 | Cc1cc(C(c2ccccc2C#N)C(C)c2nc(C(=O)Nc3cnoc3)c(O)c(=O)n2C)n(C)n1 (single isomer, unassigned) [Example 63 D2E1] | > 10 nM | > 10 nM
7 | Cc1cc(C(c2ccccc2C#N)C(C)c2nc(C(=O)Nc3cnoc3)c(O)c(=O)n2C)n(C)n1 (single isomer, unassigned) [Example 63 D2E2] | > 10 nM | > 10 nM
8 | Cc1cn(C)nc1C(c1ccccc1C#N)C(C)c1nc(C(=O)Nc2cnoc2)c(O)c(=O)n1C (single isomer, unassigned) [Example 64 D1E1] | < 1 nM | > 10 nM
9 | Cc1cn(C)nc1C(c1ccccc1C#N)C(C)c1nc(C(=O)Nc2cnoc2)c(O)c(=O)n1C (single isomer, unassigned) [Example 64 D1E2] | > 10 nM | > 10 nM
10 | Cc1cn(C)nc1C(c1ccccc1C#N)C(C)c1nc(C(=O)Nc2cnoc2)c(O)c(=O)n1C (single isomer, unassigned) [Example 64 D2E2] | > 10 nM | > 10 nM
11 | CCn1ncc(C(c2ccc(F)cc2C#N)C(C)c2nc(C(=O)Nc3cnoc3)c(O)c(=O)n2C)c1C (single isomer, unassigned) [Example 65 D1E2] | > 10 nM | > 10 nM
12 | CCn1ncc(C(c2ccc(F)cc2C#N)C(C)c2nc(C(=O)Nc3cnoc3)c(O)c(=O)n2C)c1C (single isomer, unassigned) [Example 65 D2E2] | < 1 nM | > 10 nM
13 | CC(c1nc(C(=O)Nc2cnoc2)c(O)c(=O)n1C)C(c1cnccn1)c1ccccc1C#N (single isomer, unassigned) [Example 66 D1E2] | 1 to 10 nM | > 10 nM
14 | CC(c1nc(C(=O)Nc2cnoc2)c(O)c(=O)n1C)C(c1cnccn1)c1ccccc1C#N (single isomer, unassigned) [Example 66 D2E1] | 1 to 10 nM | > 10 nM
15 | CC(c1nc(C(=O)Nc2cnoc2)c(O)c(=O)n1C)C(c1cnccn1)c1ccccc1C#N (single isomer, unassigned) [Example 66 D2E2] | > 10 nM | > 10 nM
16 | CCn1ncc(C(c2ccccc2C#N)C(C)c2nc(C(=O)Nc3cnoc3)c(O)c(=O)n2C)c1C (single isomer, unassigned) [Example 68 D1E2] | > 10 nM | > 10 nM
17 | CCn1ncc(C(c2ccccc2C#N)C(C)c2nc(C(=O)Nc3cnoc3)c(O)c(=O)n2C)c1C (single isomer, unassigned) [Example 68 D2E2] | > 10 nM | > 10 nM
18 | COCCn1ncc(C(c2ccccc2C#N)C(C)c2nc(C(=O)Nc3cnoc3)c(O)c(=O)n2C)c1C (single isomer, unassigned) [Example 69 D1E2] | > 10 nM | > 10 nM
19 | COCCn1ncc(C(c2ccccc2C#N)C(C)c2nc(C(=O)Nc3cnoc3)c(O)c(=O)n2C)c1C (single isomer, unassigned) [Example 69 D2E1] | > 10 nM | > 10 nM
20 | CCn1cc(C(c2ccccc2C#N)C(C)c2nc(C(=O)Nc3cnoc3)c(O)c(=O)n2C)c(C)n1 (single isomer, unassigned) [Example 70 D1E2] | > 10 nM | > 10 nM

Row | Structure (SMILES) | IC50 (full length human TREX1) | IC50 (full length mouse TREX1)
21 | CCn1cc(C(c2ccccc2C#N)C(C)c2nc(C(=O)Nc3cnoc3)c(O)c(=O)n2C)c(C)n1 (single isomer, unassigned) [Example 70 D2E1] | 1 to 10 nM | > 10 nM
22 | CCn1cc(C(c2ccccc2C#N)C(C)c2nc(C(=O)Nc3cnoc3)c(O)c(=O)n2C)c(C)n1 (single isomer, unassigned) [Example 70 D2E2] | > 10 nM | > 10 nM
23 | COCCn1cc(C(c2ccccc2C#N)C(C)c2nc(C(=O)Nc3cnoc3)c(O)c(=O)n2C)c(C)n1 (single isomer, unassigned) [Example 71 D1E2] | > 10 nM | > 10 nM
24 | COCCn1cc(C(c2ccccc2C#N)C(C)c2nc(C(=O)Nc3cnoc3)c(O)c(=O)n2C)c(C)n1 (single isomer, unassigned) [Example 71 D2E1] | > 10 nM | > 10 nM
25 | COCCn1cc(C(c2ccccc2C#N)C(C)c2nc(C(=O)Nc3cnoc3)c(O)c(=O)n2C)c(C)n1 (single isomer, unassigned) [Example 71 D2E2] | > 10 nM | > 10 nM
26 | CCn1cc(C(c2cc(F)c(F)cc2Cl)C(C)c2nc(C(=O)Nc3cnoc3)c(O)c(=O)n2C)cn1 (single isomer, unassigned) [Example 72 D1E1] | < 1 nM | 1 to 10 nM
27 | CCn1cc(C(c2cc(F)c(F)cc2Cl)C(C)c2nc(C(=O)Nc3cnoc3)c(O)c(=O)n2C)cn1 (single isomer, unassigned) [Example 72 D1E2] | > 10 nM | > 10 nM
28 | CCn1cc(C(c2cc(F)c(F)cc2Cl)C(C)c2nc(C(=O)Nc3cnoc3)c(O)c(=O)n2C)cn1 (single isomer, unassigned) [Example 72 D2E1] | > 10 nM | > 10 nM
29 | CCn1cc(C(c2cc(F)c(F)cc2Cl)C(C)c2nc(C(=O)Nc3cnoc3)c(O)c(=O)n2C)cn1 (single isomer, unassigned) [Example 72 D2E2] | > 10 nM | > 10 nM
30 | COCCn1cc(C(c2cc(F)c(F)cc2Cl)C(C)c2nc(C(=O)Nc3cnoc3)c(O)c(=O)n2C)cn1 (single isomer, unassigned) [Example 73 D1E2] | > 10 nM | > 10 nM
31 | COCCn1cc(C(c2cc(F)c(F)cc2Cl)C(C)c2nc(C(=O)Nc3cnoc3)c(O)c(=O)n2C)cn1 (single isomer, unassigned) [Example 73 D2E1] | > 10 nM | > 10 nM
32 | COCCn1cc(C(c2cc(F)c(F)cc2Cl)C(C)c2nc(C(=O)Nc3cnoc3)c(O)c(=O)n2C)cn1 (single isomer, unassigned) [Example 73 D2E2] | > 10 nM | > 10 nM
33 | Cc1nn(C)c(C)c1C(c1ccccc1C#N)C(C)c1nc(C(=O)Nc2cnoc2)c(O)c(=O)n1C (single isomer, unassigned) [Example 78 D2E2] | > 10 nM | > 10 nM
34 | CC(c1nc(C(=O)Nc2cnoc2)c(O)c(=O)n1C)C(c1cnn(C)c1)c1ccc(O)cc1C#N (single isomer, unassigned) [Example 80 D2E1] | > 10 nM | > 10 nM
35 | Cc1cnn(C)c1C(c1ccccc1C#N)C(C)c1nc(C(=O)Nc2cnoc2)c(O)c(=O)n1C (single isomer, unassigned) [Example 84 D1E2] | > 10 nM | > 10 nM
36 | CC(c1nc(C(=O)Nc2cnoc2)c(O)c(=O)n1C)C(c1cnn(C2COC2)c1)c1ccccc1C#N (single isomer, unassigned) [Example 106 D2E2] | > 10 nM | > 10 nM
37 | Cc1cc(C(c2cc(F)ccc2C#N)C(C)c2nc(C(=O)Nc3cnoc3)c(O)c(=O)n2C)n(C)n1 (single isomer, unassigned) [Example 111 D1E1] | > 10 nM | > 10 nM
38 | Cc1cc(C(c2cc(F)ccc2Cl)C(C)c2nc(C(=O)Nc3cnoc3)c(O)c(=O)n2C)n(C)n1 (single isomer, unassigned) [Example 113 D2E2] | > 10 nM | > 10 nM
39 | Cc1cnc(C(c2cc(F)ccc2C#N)C(C)c2nc(C(=O)Nc3cnoc3)c(O)c(=O)n2C)cn1 (single isomer, unassigned) [Example 115 D2E1] | > 10 nM | > 10 nM
40 | Cc1cnc(C(c2ccccc2Cl)C(C)c2nc(C(=O)Nc3cnoc3)c(O)c(=O)n2C)cn1 (single isomer, unassigned) [Example 116 D2E2] | > 10 nM | > 10 nM

— patent US20240246946A1, “MODULATORS OF TREX1” (Constellation Pharmaceuticals, Inc., priority 2021, published 2024)
